Source: ChEMBL document CHEMBL1201862, “PubChem BioAssay data set” (2004)
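Tested at 5 concentrations; 48 h exposure; 96-well plates; endpoints linearly interpolated, else capped at highest concentration. At the GI50, growth is halved.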 Activity calls are given as the source filed them. Cut-off read from the data, not from the text of the source: active = GI50 up to about 1.1 µM and inactive = higher.

Columns and labels:
Assay in all cases: DTP human tumour cell line panel, 48 h
A498 = test system: A498
MDA-MB-231 = test system: MDA-MB-231
BT-549 = test system: BT-549
SF-295 = test system: SF-295
SF-539 = test system: SF-539
MCF7 = test system: MCF7
UO-31 = test system: UO-31
Hs-578T = test system: Hs-578T
MDA-N = test system: MDA-N
HL-60 = test system: HL-60
NCI-H226 = test system: NCI-H226
CAKI-1 = test system: CAKI-1
OVCAR-3 = test system: OVCAR-3
OVCAR-5 = test system: OVCAR-5
HOP-92 = test system: HOP-92
RXF 393 = test system: RXF 393
HT-29 = test system: HT-29
SW-620 = test system: SW-620
HCT-116 = test system: HCT-116
Malme-3M = test system: Malme-3M
RPMI-8226 = test system: RPMI-8226
SK-MEL-28 = test system: SK-MEL-28
NCI-H23 = test system: NCI-H23
CCRF-CEM = test system: CCRF-CEM
EKVX = test system: EKVX
ACHN = test system: ACHN
HOP-62 = test system: HOP-62
SR = test system: SR
SNB-75 = test system: SNB-75
HCT-15 = test system: HCT-15
DU-145 = test system: DU-145
TK-10 = test system: TK-10
IGROV-1 = test system: IGROV-1
NCI-H522 = test system: NCI-H522
LOX IMVI = test system: LOX IMVI
MDA-MB-435 = test system: MDA-MB-435
SN12C = test system: SN12C
786-0 = test system: 786-0
PC-3 = test system: PC-3
KM12 = test system: KM12
NCI/ADR-RES = test system: NCI/ADR-RES
SK-MEL-2 = test system: SK-MEL-2
U-251 = test system: U-251
SK-OV-3 = test system: SK-OV-3
SF-268 = test system: SF-268
K562 = test system: K562
HCC 2998 = test system: HCC 2998
A549 = test system: A549
UACC-62 = test system: UACC-62
MOLT-4 = test system: MOLT-4
NCI-H460 = test system: NCI-H460
UACC-257 = test system: UACC-257
OVCAR-4 = test system: OVCAR-4
T47D = test system: T47D
M14 = test system: M14
OVCAR-8 = test system: OVCAR-8
COLO 205 = test system: COLO 205
SNB-19 = test system: SNB-19
SK-MEL-5 = test system: SK-MEL-5

COC1C=COC2(C)Oc3c(C)c(O)c4c(c3C2=O)/C(=N/C2CCC(O)OC2C)C=C(NC(=O)/C(C)=C\C(=O)C2CC2C(O)C(C)C(O)C(C)C(OC(C)=O)C1C)C4=O (stereo not drawn)
GI50 (A498): 3050 nM (inactive)
GI50 (MDA-MB-231): 2070 nM (inactive)
GI50 (BT-549): 2440 nM (inactive)
GI50 (SF-295): 3720 nM (inactive)
GI50 (SF-539): 2330 nM (inactive)
GI50 (MCF7): 1890 nM (inactive)
GI50 (UO-31): 2520 nM (inactive)
GI50 (Hs-578T): 2410 nM (inactive)
GI50 (MDA-N): 1880 nM (inactive)
GI50 (HL-60): 2140 nM (inactive)
GI50 (NCI-H226): 2650 nM (inactive)
GI50 (CAKI-1): 3240 nM (inactive)
GI50 (OVCAR-3): 365 nM (active)
GI50 (OVCAR-5): 2880 nM (inactive)
GI50 (HOP-92): 2070 nM (inactive)
GI50 (RXF 393): 1860 nM (inactive)
GI50 (HT-29): 1150 nM (inactive)
GI50 (SW-620): 1880 nM (inactive)
GI50 (HCT-116): 1790 nM (inactive)
GI50 (Malme-3M): 1690 nM (inactive)
GI50 (RPMI-8226): 962 nM (active)
GI50 (SK-MEL-28): 2050 nM (inactive)
GI50 (NCI-H23): 1790 nM (inactive)
GI50 (CCRF-CEM): 474 nM (active)
GI50 (EKVX): 3130 nM (inactive)
GI50 (ACHN): 3130 nM (inactive)
GI50 (HOP-62): 3040 nM (inactive)
GI50 (SR): 1700 nM (inactive)
GI50 (SNB-75): 3090 nM (inactive)
GI50 (HCT-15): 2940 nM
GI50 (DU-145): 2540 nM (inactive)
GI50 (TK-10): 2900 nM (inactive)
GI50 (IGROV-1): 2400 nM (inactive)
GI50 (NCI-H522): 946 nM (active)
GI50 (LOX IMVI): 1610 nM (inactive)
GI50 (MDA-MB-435): 1790 nM (inactive)
GI50 (SN12C): 1610 nM (inactive)
GI50 (786-0): 1660 nM (inactive)
GI50 (PC-3): 2300 nM (inactive)
GI50 (KM12): 2840 nM (inactive)
GI50 (NCI/ADR-RES): 14200 nM (inactive)
GI50 (SK-MEL-2): 3480 nM (inactive)
GI50 (U-251): 2770 nM (inactive)
GI50 (SK-OV-3): 7960 nM (inactive)
GI50 (SF-268): 2970 nM (inactive)
GI50 (K562): 2220 nM (inactive)
GI50 (HCC 2998): 2470 nM (inactive)
GI50 (A549): 3480 nM (inactive)
GI50 (UACC-62): 2010 nM (inactive)
GI50 (MOLT-4): 1940 nM (inactive)
GI50 (NCI-H460): 3260 nM (inactive)
GI50 (UACC-257): 2220 nM (inactive)
GI50 (OVCAR-4): 3090 nM (inactive)
GI50 (T47D): 2690 nM (inactive)
GI50 (M14): 1970 nM (inactive)
GI50 (OVCAR-8): 1690 nM (inactive)
GI50 (COLO 205): 1330 nM (inactive)
GI50 (SNB-19): 3470 nM (inactive)
GI50 (SK-MEL-5): 1950 nM (inactive)

CC[C@H](C)[C@H]1NC(=O)[C@@H](NC(=O)[C@@H](CC(C)C)N(C)CC2CCCN2C(=O)C(C)=O)[C@@H](C)OC(=O)[C@H](Cc2ccc(OC)cc2)N(C)C(=O)C2CCCN2C(=O)[C@H](CC(C)C)NC(=O)[C@@H](C)C(=O)[C@H](C(C)C)OC(=O)C[C@@H]1O (stereo partly drawn)
GI50 (A498): 4.71 nM (active)
GI50 (MDA-MB-231): 4.32 nM (active)
GI50 (BT-549): 4.7 nM (active)
GI50 (SF-295): 3.71 nM (active)
GI50 (SF-539): < 2.5 nM (active)
GI50 (MCF7): < 2.5 nM (active)
GI50 (UO-31): 8.93 nM (active)
GI50 (Hs-578T): 4.05 nM (active)
GI50 (MDA-N): 5.08 nM (active)
GI50 (HL-60): 4.76 nM (active)
GI50 (NCI-H226): 15.2 nM (active)
GI50 (CAKI-1): 22.1 nM (active)
GI50 (OVCAR-3): 3.24 nM (active)
GI50 (OVCAR-5): 3.93 nM (active)
GI50 (HOP-92): 4.03 nM (active)
GI50 (RXF 393): < 2.5 nM (active)
GI50 (HT-29): 2.55 nM (active)
GI50 (SW-620): 4.09 nM (active)
GI50 (HCT-116): 3.08 nM (active)
GI50 (Malme-3M): 6.81 nM (active)
GI50 (RPMI-8226): 3.13 nM (active)
GI50 (SK-MEL-28): 4.9 nM (active)
GI50 (NCI-H23): 7.19 nM (active)
GI50 (CCRF-CEM): < 2.5 nM (active)
GI50 (EKVX): 3.79 nM (active)
GI50 (ACHN): 4.44 nM (active)
GI50 (HOP-62): 3.61 nM (active)
GI50 (SR): 2.51 nM (active)
GI50 (SNB-75): 3.17 nM (active)
GI50 (HCT-15): 76.9 nM
GI50 (DU-145): < 2.5 nM (active)
GI50 (TK-10): 8.53 nM (active)
GI50 (IGROV-1): < 2.5 nM (active)
GI50 (NCI-H522): 5.64 nM (active)
GI50 (LOX IMVI): 2.91 nM (active)
GI50 (MDA-MB-435): 3.71 nM (active)
GI50 (SN12C): 5.45 nM (active)
GI50 (786-0): 4.94 nM (active)
GI50 (PC-3): 4.06 nM (active)
GI50 (KM12): 3.02 nM (active)
GI50 (NCI/ADR-RES): 17.9 nM (active)
GI50 (SK-MEL-2): 3.51 nM (active)
GI50 (U-251): < 2.5 nM (active)
GI50 (SK-OV-3): 3.76 nM (active)
GI50 (SF-268): 4.88 nM (active)
GI50 (K562): 5.31 nM (active)
GI50 (HCC 2998): 4.48 nM (active)
GI50 (A549): 3.56 nM (active)
GI50 (UACC-62): 2.94 nM (active)
GI50 (MOLT-4): < 2.5 nM (active)
GI50 (NCI-H460): 3.81 nM (active)
GI50 (UACC-257): 4.43 nM (active)
GI50 (OVCAR-4): < 2.5 nM (active)
GI50 (T47D): 3.44 nM (active)
GI50 (M14): 3.74 nM (active)
GI50 (OVCAR-8): 3.72 nM (active)
GI50 (COLO 205): 2.93 nM (active)
GI50 (SNB-19): 3.56 nM (active)
GI50 (SK-MEL-5): 3.11 nM (active)
